In test [1] the target is T1, C2β domain of AtPLDβ (mC2β) (Arabidopsis thaliana, UniProt P93733, F299V).
T1 construct: gene PLDBETA1; C2 domain cut to match mature-like C2α; forward primer encodes MVGRLPG (second codon F changed to V); C-terminal 6xHis kept
T1 sequence (P93733 298-418 F299V): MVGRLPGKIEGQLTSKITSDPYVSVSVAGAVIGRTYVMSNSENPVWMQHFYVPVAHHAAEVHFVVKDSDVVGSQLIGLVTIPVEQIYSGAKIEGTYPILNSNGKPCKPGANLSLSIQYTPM
Description: protein to dansyl-PE liposome FRET. The class given is binding. Conditions: 20 μM liposomes with 5% dansyl-PE, 1 μM domain, 50 mM HEPES pH 8, 30 °C; 0, 50 or 200 μM Ca2+.

Test [2] has as its target T2, C2α domain of AtPLDα (mC2α) (Arabidopsis thaliana, UniProt Q38882).
T2 construct: gene PLDALPHA1; mature-like C2 domain lacking the N-terminal residues; forward primer encodes (M)ANVEET, extra Met added; last encoded residues before tag ...LQYFHVE by reverse primer; C-terminal 6xHis kept
T2 sequence (Q38882 35-152): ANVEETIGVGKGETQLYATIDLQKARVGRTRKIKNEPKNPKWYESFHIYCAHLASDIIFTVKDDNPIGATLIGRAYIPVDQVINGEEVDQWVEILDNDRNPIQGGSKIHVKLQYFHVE
Kind of test: protein to dansyl-PE liposome FRET; lipid dot-blot. The class given is binding. Conditions: 20 μM liposomes with 5% dansyl-PE, 1 μM domain, 50 mM HEPES pH 8, 30 °C; 0, 50 or 200 μM Ca2+.

For test [3], the target named is T1, C2β domain of AtPLDβ (mC2β). Kind of test: protein to dansyl-PE liposome FRET; lipid dot-blot. It counts as binding. Conditions: 20 μM liposomes with 5% dansyl-PE, 1 μM domain, 50 mM HEPES pH 8, 30 °C; 0, 50 or 200 μM Ca2+.
The next test addresses T3, AtPLDα-WT (Arabidopsis thaliana, UniProt Q38882).
T3 construct: gene PLDALPHA1; full-length cDNA, untagged, Pichia pastoris X-33; possibly N-glycosylated
T3 sequence (Q38882 36-810): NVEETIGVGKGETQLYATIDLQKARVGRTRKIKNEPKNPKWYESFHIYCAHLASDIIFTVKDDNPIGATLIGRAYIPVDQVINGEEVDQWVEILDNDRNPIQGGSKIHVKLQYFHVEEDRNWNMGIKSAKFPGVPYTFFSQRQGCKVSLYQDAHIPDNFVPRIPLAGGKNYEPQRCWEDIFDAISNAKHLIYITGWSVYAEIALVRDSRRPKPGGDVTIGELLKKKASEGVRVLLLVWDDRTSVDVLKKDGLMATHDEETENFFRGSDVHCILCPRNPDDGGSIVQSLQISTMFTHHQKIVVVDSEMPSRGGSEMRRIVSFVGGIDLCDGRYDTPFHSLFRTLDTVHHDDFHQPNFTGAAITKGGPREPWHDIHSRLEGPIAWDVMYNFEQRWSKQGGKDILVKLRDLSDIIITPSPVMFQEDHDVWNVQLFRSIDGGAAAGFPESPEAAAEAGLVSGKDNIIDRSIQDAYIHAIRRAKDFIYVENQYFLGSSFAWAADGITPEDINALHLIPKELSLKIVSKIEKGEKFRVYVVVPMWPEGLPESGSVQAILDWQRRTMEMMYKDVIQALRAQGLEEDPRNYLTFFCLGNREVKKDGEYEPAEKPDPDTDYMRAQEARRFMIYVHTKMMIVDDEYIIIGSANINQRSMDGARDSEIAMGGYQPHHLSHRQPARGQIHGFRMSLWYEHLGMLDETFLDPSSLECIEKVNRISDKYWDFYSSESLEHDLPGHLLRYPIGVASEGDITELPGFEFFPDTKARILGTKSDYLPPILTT
Kind of test: choline oxidase / peroxidase coupled colorimetric assay, […] nm. It counts as biochemical. Conditions: crude P. pastoris extract; 266 μM POPC in SDS / Triton X-100 mixed micelles, 20 mM CaCl2, 50 mM Tris-HCl pH 8.0.

The results in this text go back to paper PMC5215601, “Functional Characterization of the N-Terminal C2 Domain from Arabidopsis thaliana Phospholipase Dα and Dβ” (BioMed Research International, 2016).

As to `CCCCCCCC/C=C\CCCCCCCC(=O)O[C@H](COC(=O)CCCCCCCCCCCCCCC)COP(=O)(O)OCC(O)CO` (mixture of isomers) [PG, 1-Palmitoyl-2-oleoyl-sn-glycero-3-phospho-(1′-rac-glycerol)], the “relative FRET” value in test [1] and in test [2] was “both C2 domains showed a strong binding to PG vesicles” throughout.

For the molecule `CCCCCCCC/C=C\CCCCCCCC(=O)O[C@H](COC(=O)CCCCCCCCCCCCCCC)COP(=O)(O)O` [PA, 1-palmitoyl-2-oleoyl-sn-glycero-3-phosphate], the “relative FRET” value is “both C2 domains were found to bind anionic phospholipids (PA and PS)” in test [3]; “both C2 domains were found to bind anionic phospholipids (PA and PS)” in test [2].

Regarding `CCCCCCCC/C=C\CCCCCCCC(=O)O[C@H](COC(=O)CCCCCCCCCCCCCCC)COP(=O)([O-])OCC[N+](C)(C)C` [PC, 1-Palmitoyl-2-oleoyl-sn-glycero-3-phosphocholine], the PLD activity entry on AtPLDα-WT is “crude extracts of P. pastoris transformed with the AtPLDα-WT exhibited a higher PLD activity”.
